Like-named read-outs stand apart in the source and are kept apart here.
Tests used:
[1] = oxidation of biological thiols, physiological pH; marked with footnote a; cited from earlier work
[2] = Oxidation of boronic acids by hydrogen peroxide, continuous UV-absorbance assay; assay type: physicochemical; settings: for kmonoanion (rel) / kmonoanion: experimental; for kmonoanion (rel): relative to PBA; for kmonoanion: second-order rate constant for oxidation of monoanionic tetrahedral state; for kobs: second-order rate constant of oxidation by hydrogen peroxide, physiological pH
Description: Hydrogen peroxide is known to be the major reactive oxygen species in humans. The oxidation of phenylboronic acids by aqueous hydrogen peroxide yields a phenol and boric acid. […] The oxidation rates were first-order with respect to hydrogen peroxide and each boronic acid. The ensuing second-order rate constants varied with pH and were half-maximal for PBA and 2-HMPBA when pH=pKa. Oxidation rates increase in a pH-dependent manner after and before a pH-independent regime (FIG. 2). This observation is consistent with the existence of two pH-independent rate constants, k1 and k2. Whereas the oxidation rates of PBA and 2-HMPBA at physiological pH are similar to those for biological thiols, the comparative stability of CPBA to oxidation is unexpected (Table 1).
For PBA, 2-HMPBA, and 2-CPBA, the transition from a neutral trigonal state to a monoanionic tetrahedral state occurs when the pH surpasses the pKa (FIG. 3). […] The oxaborolone is differentiated by its existence as a monoanionic tetrahedral species above pH 1. The second-order rate constants for the oxidation for the monoanionic tetrahedral states of PBA, 2-HMPBA, 2-CPBA, and 2-CMPBA ((2-carboxymethyl)-phenylboronic acid) are listed in Table 2.

[3] = Affinity for saccharides, 1H-NMR titration; assay type: binding
Description: (§1) PBA and 2-HMPBA are employed often for their ability to form esters with saccharides. As the affinity of boronic acids for saccharides is generally greatest near their pKa value, the low pKa1 of 2-CPBA portends a low affinity. The results of ^1H-NMR titration experiments with D-fructose, D-glucose, and N-acetylneuraminic acid (Neu5Ac) are consistent with this expectation (Table 3).

ribonuclease A (RNase A) = target: T1, ribonuclease A (RNase A) (Bos taurus, UniProt P61823); assay: Inhibition of catalysis by ribonuclease A; assay type: biochemical; settings: pH 6.0, substrate 6-FAM-(dA)rU(dA)2-6-TAMRA
T1 sequence (P61823 27-150): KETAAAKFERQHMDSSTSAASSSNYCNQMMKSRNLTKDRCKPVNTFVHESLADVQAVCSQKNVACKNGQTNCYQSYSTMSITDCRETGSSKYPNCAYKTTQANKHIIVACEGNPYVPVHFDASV
Method: The catalytic activity of ribonuclease A (RNase A) was assayed using 6-FAM-(dA)rU(dA)2-6-TAMRA as a substrate (Kelemen, B. R.; et al. Nucleic Acids Res. 1999, 27, 3696-3701). Assays were performed in 50 mM MES-NaOH buffer, pH 6.0, containing NaCl (100 mM) and RNase A (1 pM) in 200-μL solutions in a black, flat-bottomed 96-well plate and with a Tecan M1000 plate reader. An aqueous solution of 2-CPBA was prepared by dilution from a 500 mM stock that had its pH adjusted to that of the assay buffer. Initial velocities were measured from <5% turnover. Velocities were fitted to the 4-parameter logistic equation using Prism software from GraphPad. Uninhibited velocities were used to constrain the top parameter.

[4] = Affinity for saccharides, overall comparison; assay type: binding
Description: as §1

[5] = target: T2, calf intestinal phosphatase (CIP) (Bos taurus, UniProt P19111); assay: Inhibition of calf intestinal phosphatase, 4-nitrophenyl phosphate substrate; assay type: biochemical; settings: pH 7.5, substrate 1.0 mM
T2 construct: purchased Promega (Fitchburg, WI)
Method: (§2) 2-CPBA was tested as an inhibitor of pig liver esterase (PLE). This test used 4-nitrophenyl acetate (PNPA) as a substrate. In addition, 2-CPBA was tested as an inhibitor of calf intestinal phosphatase (CIP). This test used 4-nitrophenyl phosphate. Substrates and PLE (15 units/mg) were obtained from Sigma-Aldrich (St. Louis, MO) as dry powders. CIP was obtained from Promega (Fitchburg, WI) as a solution (1 unit/μL). The hydrolysis of the two chromogenic substrates was monitored with a Tecan M1000 plate reader by measuring the absorbance of the 4-nitrophenol product at a wavelength of 405 nm. Assays were performed in a buffer of 20 mM Tris-HCl buffer, pH 7.5, in a clear, flat bottomed 96-well plate in 200-μL volumes. Solutions for CIP assays contained enzyme (0.003 units/μL) and substrate (1.0 mM). Solutions for PLE assays contained enzyme (0.01 units/mL) and substrate (1.0 mM). Both enzymes were assayed for inhibition by adding 2-CPBA (to a concentration of 0.78-100 mM) from a 250 mM stock solution that had its pH adjusted to that of the assay buffer. Initial velocities were measured by calculating ΔA405 nm over time. Velocities were fitted to the 4-parameter logistic equation with Prism software from GraphPad (San Diego, CA). No enzyme and uninhibited velocities were used to constrain the top and bottom parameters. Values of Ki were 80 mM for CIP and 10 mM for PLE.

pig liver esterase (PLE) = target: T3, pig liver esterase (PLE) (Sus scrofa, UniProt Q29550); assay: Inhibition of pig liver esterase, 4-nitrophenyl acetate substrate; assay type: biochemical; settings: pH 7.5, substrate 1.0 mM
T3 sequence (Q29550 19-566): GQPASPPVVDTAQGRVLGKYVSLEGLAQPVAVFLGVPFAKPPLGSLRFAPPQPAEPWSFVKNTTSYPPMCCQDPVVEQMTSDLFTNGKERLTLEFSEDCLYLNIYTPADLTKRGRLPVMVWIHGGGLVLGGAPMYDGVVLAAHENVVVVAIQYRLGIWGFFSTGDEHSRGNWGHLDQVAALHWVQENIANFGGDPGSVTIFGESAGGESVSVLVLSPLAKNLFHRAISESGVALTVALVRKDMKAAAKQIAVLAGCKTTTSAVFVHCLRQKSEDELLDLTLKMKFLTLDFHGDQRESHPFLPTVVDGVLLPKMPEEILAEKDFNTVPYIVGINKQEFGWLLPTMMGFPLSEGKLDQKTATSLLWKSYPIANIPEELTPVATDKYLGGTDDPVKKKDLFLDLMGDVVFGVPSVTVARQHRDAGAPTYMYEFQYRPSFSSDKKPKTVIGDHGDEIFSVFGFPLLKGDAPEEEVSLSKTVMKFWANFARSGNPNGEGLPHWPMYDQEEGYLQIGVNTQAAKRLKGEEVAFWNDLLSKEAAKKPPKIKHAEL
Method: as §2

Transthyretin (TTR) = target: T4, Transthyretin (TTR) (Homo sapiens, UniProt P02766); assay: Inhibition of transthyretin fibril formation, light-scattering at 400 nm; assay type: biochemical; settings: pH 4.4, 96-h incubation at 37° C.
T4 construct: made in house
Method: TTR was expressed and purified as previously reported (Smith, T. P., et al, J. Med. Chem., 2017, 60, 7820-7834). Inhibition of fibril formation was assayed as previously reported (Smith, et al.). Briefly, TTR (7.2 μM) was incubated with varying ratios of kinetic stabilizers (BOL or tafamidis) in 10 mM sodium phosphate buffer, pH 7.6, containing potassium chloride (100 mM) for 30 min at 37° C. Solutions were 2-fold diluted with 100 mM sodium acetate buffer, pH 4.4, containing potassium chloride (100 mM). Quadruplicate samples were plated in a clear 96-well plate. Fibril formation was assessed by measuring light-scattering at 400 nm immediately following acidification and after a 96-h incubation at 37° C. Data were analyzed with equation 1 below by comparing the change in light-scattering over the incubation with a control containing the protein and no inhibitor. The standard deviation of measurements was propagated through calculation in equation 1.

T2 sequence (P19111 20-506): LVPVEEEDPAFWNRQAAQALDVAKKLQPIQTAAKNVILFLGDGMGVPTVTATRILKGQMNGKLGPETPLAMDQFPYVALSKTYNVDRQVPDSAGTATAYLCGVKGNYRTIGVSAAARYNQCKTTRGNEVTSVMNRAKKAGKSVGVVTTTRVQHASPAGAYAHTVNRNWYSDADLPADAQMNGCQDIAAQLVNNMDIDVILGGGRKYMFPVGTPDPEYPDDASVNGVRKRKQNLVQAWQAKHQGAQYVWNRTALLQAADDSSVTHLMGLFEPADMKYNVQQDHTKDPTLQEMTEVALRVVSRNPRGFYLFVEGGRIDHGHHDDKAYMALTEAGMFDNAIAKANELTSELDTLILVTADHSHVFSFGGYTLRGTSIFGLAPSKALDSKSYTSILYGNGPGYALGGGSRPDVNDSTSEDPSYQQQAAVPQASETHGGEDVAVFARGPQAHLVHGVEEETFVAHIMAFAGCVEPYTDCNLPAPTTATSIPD

Compound | kobs [1] [M⁻¹ s⁻¹] | kmonoanion (rel) [2] | kmonoanion [2] [M⁻¹ s⁻¹] | kobs [2] [M⁻¹ s⁻¹] | D-fructose, Ka [3] [M⁻¹] | D-glucose, Ka [3] [M⁻¹] | Neu5Ac, Ka [3] [M⁻¹] | other results
N[C@@H](CS)C(=O)O [Cysteine] | 2.9 | – | – | – | – | – | – | –
OCc1ccccc1B(O)O [Compound 2-HMPBA, (2-hydroxymethyl)phenylboronic acid] | – | 0.10 | 4.8 | 2.4 | 336 ± 43 | 28 ± 4 | 43 ± 5 | –
OB(O)c1ccccc1 [PBA, phenylboronic acid] | – | 1 | 46 | 2.4 | 128 ± 20 | 5 ± 1 | 13 ± 1 | –
O=C(O)c1ccccc1B(O)O [Compound 2-CPBA, 2-carboxyphenylboronic acid] | – | 0.0000035 | 0.00016 | 0.00015 | 23 ± 2 | 1.7 ± 0.1 | 6.0 ± 0.5 | IC50 (ribonuclease A (RNase A)): 27 mM; loss in affinity for saccharides versus 2-HMPBA ([4]; versus 2-HMPBA): about 13 fold; loss in affinity for saccharides versus PBA ([4]; versus PBA): about 4 fold; Ki [5]: 80 mM; Ki (pig liver esterase (PLE)): 10 mM
CC(=O)N[C@@H](CS)C(=O)O [N-Acetylcysteine] | 0.16 | – | – | – | – | – | – | –
N[C@@H](CCC(=O)N[C@@H](CS)C(=O)NCC(=O)O)C(=O)O [Glutathione] | 0.89 | – | – | – | – | – | – | –
O=C(O)Cc1ccccc1B(O)O [Compound 2-CMPBA, (2-carboxymethyl)-phenylboronic acid] | – | 0.00088 | 0.041 | 0.041 | – | – | – | –
O=C(O)c1ccc2nc(-c3cc(Cl)cc(Cl)c3)oc2c1 [tafamidis] | – | – | – | – | – | – | – | % Fibril formation (Transthyretin (TTR); TTR:Compound ratio 1:1): 29 ± 5%; % Fibril formation (Transthyretin (TTR); TTR:Compound ratio 1:2): 1 ± 5%

From US12065456B2, “Boron-containing pharmacophore” (MASSACHUSETTS INSTITUTE OF TECHNOLOGY, priority 2019, dated 2024)
